The results in this text go back to patent publication US9328099B2, “Cyanomethylpyrazole carboxamides as janus kinase inhibitors” (Merck Sharp & Dohme Corp., priority 2011, dated 2016).

The target in assay [1] is JAK1 (Homo sapiens (Human), UniProt P23458). As to the kind of experiment: Jak Biochemical HTRF Assay, JAK1. Particulars: read-out: JAK1 IC50. The text has this: (§1) Jak Biochemical HTRF Assay Protocol
(§2) Subsequent reagent additions employed an Agilent Bravo.

In assay [2] the target is JAK2 (Homo sapiens (Human), UniProt O60674). As to the kind of experiment: Jak Biochemical HTRF Assay, JAK2.
Sequence of JAK2 (O60674 849-1124): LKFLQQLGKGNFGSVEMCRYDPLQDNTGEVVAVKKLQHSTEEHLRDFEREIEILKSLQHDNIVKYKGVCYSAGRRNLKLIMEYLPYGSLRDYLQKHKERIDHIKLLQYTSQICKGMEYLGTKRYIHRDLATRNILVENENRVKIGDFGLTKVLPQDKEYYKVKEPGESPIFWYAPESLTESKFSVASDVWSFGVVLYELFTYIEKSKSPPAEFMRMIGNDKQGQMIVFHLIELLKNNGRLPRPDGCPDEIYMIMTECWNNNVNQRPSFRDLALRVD
Description: as §1, §2
On the technique in general: In TR-FRET formats the signal depends on donor and acceptor labels being close together.

Where [3] appears, read: HTRF biochemical assay, GST-tagged catalytic domain, top concentration tested […].

pIC50: −log10 of the molar value. Read-outs that look alike come from different tables or passages of the source.

Sequence of JAK1 (P23458 875-1153): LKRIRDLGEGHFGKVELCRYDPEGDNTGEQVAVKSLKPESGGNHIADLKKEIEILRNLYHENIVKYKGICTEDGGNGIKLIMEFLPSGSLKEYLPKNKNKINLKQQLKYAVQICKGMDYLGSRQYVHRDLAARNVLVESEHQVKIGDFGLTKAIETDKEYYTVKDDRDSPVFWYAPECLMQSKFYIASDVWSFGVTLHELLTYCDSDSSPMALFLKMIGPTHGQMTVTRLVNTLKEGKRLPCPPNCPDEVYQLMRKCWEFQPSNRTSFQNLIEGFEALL

Broadly, the pIC50 is the IC50 on a negative log10 scale, so that one unit is a factor of ten. As to `N#CCC1(n2cc(C(N)=O)c(Nc3ccnc(F)c3)n2)CCN(Cc2ccn[nH]2)CC1` [Example 22-13, 1-[4-(cyanomethyl)-1-(1H-pyrazol-5-ylmethyl)piperidin-4-yl]-3-[(2-fluoropyridin-4-yl)amino]-1H-pyrazole-4-carboxamide], the results for the negative logarithm of the IC50 (pIC50) in assay [1] (setting [3]) and in assay [2] (setting [3]) were 8.52 and 7.41, respectively.

For `N#CCC1(n2cc(C(N)=O)c(Nc3ccnc(F)c3)n2)CCN(C(=O)C2(C(F)(F)F)CCC2)CC1` [Example 34-51, 1-[4-(cyanomethyl)-1-{[1-(trifluoromethyl)cyclobutyl]carbonyl}piperidin-4-yl]-3-[(2-fluoropyridin-4-yl)amino]-1H-pyrazole-4-carboxamide], the pIC50 in assay [1] (setting [3]) was 8.40; in assay [2] (setting [3]), 7.43.

Turning to `N#CCC1(n2cc(C(N)=O)c(Nc3ccccc3)n2)CCN(Cc2c(Cl)cccc2Cl)CC1` [Example 21-14, 1-[4-(cyanomethyl)-1-(2,6-dichlorobenzyl)piperidin-4-yl]-3-(phenylamino)-1H-pyrazole-4-carboxamide], the figures for the pIC50 in assay [1] (setting [3]) and in assay [2] (setting [3]) were 7.74 and 6.65, respectively.

In the case of `CC(C)(O)Cc1cccc(N2CCC(CC#N)(n3cc(C(N)=O)c(Nc4ccc(F)cc4)n3)CC2)n1` [Example 3-49, 1-{4-(cyanomethyl)-1-[6-(2-hydroxy-2-methylpropyl)pyridin-2-yl]piperidin-4-yl}-3-[(4-fluorophenyl)amino]-1H-pyrazole-4-carboxamide], the results for the pIC50 in assay [1] (setting [3]) and in assay [2] (setting [3]) were 8.30 and 6.83, respectively.

In the case of `COC(=O)N1CCC(CC#N)(n2cc(C(N)=O)c(Nc3ccc(S(=O)(=O)C(F)(F)F)cc3)n2)CC1` [Example 27-1, Methyl 4-(4-carbamoyl-3-(4-(trifluoromethylsulfonyl)phenylamino)-1H-pyrazol-1-yl)-4-(cyanomethyl)piperidine-1-carboxylate], the pIC50 in assay [1] (setting [3]) is 9.52; in assay [2] (setting [3]), 8.70.

For `N#CCC1(n2cc(C(N)=O)c(Nc3ccc(S(=O)(=O)C(F)F)cc3)n2)CCC(NCC(F)(F)F)CC1` (stereo not drawn) [Example 40-89, Cis or trans 1-{1-(cyanomethyl)-4-[(2,2,2-trifluoroethyl)amino]cyclohexyl}-3-({4-[(difluoromethyl)sulfonyl]phenyl}amino)-1H-pyrazole-4-carboxamide], the pIC50 is 7.89 in assay [1] (setting [3]) and 6.33 in assay [2] (setting [3]).

On to `CC(C)(C)CC(C)(C)NC(=O)N1CC(CC#N)(n2cc(C(N)=O)c(Nc3ccccc3)n2)C1` [Example 38-29, 1-{3-(cyanomethyl)-1-[(1,1,3,3-tetramethylbutyl)carbamoyl]azetidin-3-yl}-3-(phenylamino)-1H-pyrazole-4-carboxamide], for which the pIC50 in assay [1] (setting [3]) was 6.73; in assay [2] (setting [3]), 5.83.

In the case of `COc1ccccc1COC(=O)N1CC(CC#N)(n2cc(C(N)=O)c(Nc3ccccc3)n2)C1` [Example 30-69, 2-methoxybenzyl 3-[4-carbamoyl-3-(phenylamino)-1H-pyrazol-1-yl]-3-(cyanomethyl)azetidine-1-carboxylate], the pIC50 in assay [1] (setting [3]) was 7.51; in assay [2] (setting [3]) it was 6.17.

Take `N#CCC1(n2cc(C(N)=O)c(Nc3ccc(F)cc3)n2)CCC(NCC(F)F)CC1` (stereo not drawn) [Example 40-77, Cis or trans 1-{1-(cyanomethyl)-4-[(2,2-difluoroethyl)amino]cyclohexyl}-3-[(4-fluorophenyl)amino]-1H-pyrazole-4-carboxamide]: the values for the pIC50 in assay [1] (setting [3]) and in assay [2] (setting [3]) were 9.15 and 7.89, respectively.

On to `Cc1cc(Nc2nn(C3(CC#N)CCN(C(=O)OC(C)(C)C)CC3)cc2C(N)=O)ncn1` [Example 13-11, tert-butyl 4-(4-carbamoyl-3-(6-methylpyrimidin-4-ylamino)-1H-pyrazol-1-yl)-4-(cyanomethyl)piperidine-1-carboxylate], for which the figures for the pIC50 in assay [1] (setting [3]) and in assay [2] (setting [3]) were 8.30 and 6.90, respectively.

In the case of `N#CC[C@]1(n2cc(C(N)=O)c(Nc3ccccc3)n2)CC[C@H](C(=O)NCC(F)(F)F)CC1` [Example 45-2, cis or trans 1-{1-(cyanomethyl)-4-[(2,2,2-trifluoroethyl)carbamoyl]cyclohexyl}-3-(phenylamino)-1H-pyrazole-4-carboxamide], the pIC50 in assay [1] was 6.42; in assay [2], 5.83.

In the case of `CC(C)(C)OC(=O)N1CCC(CC#N)(n2cc(C(N)=O)c(Nc3ccnc(N)c3)n2)CC1` [Example 9-14, tert-butyl 4-{3-[(2-aminopyridin-4-yl)amino]-4-carbamoyl-1H-pyrazol-1-yl}-4-(cyanomethyl)piperidine-1-carboxylate], the pIC50 in assay [1] (setting [3]) was 9.70; in assay [2] (setting [3]), 8.52.

As to `N#CCC1(n2cc(C(N)=O)c(Nc3ccc(C4CCC4)nc3)n2)CCN(C(=O)OCC(F)F)CC1` [Example 9-38, 2,2-difluoroethyl 4-{4-carbamoyl-3-[(6-cyclobutylpyridin-3-yl)amino]-1H-pyrazol-1-yl}-4-(cyanomethyl)piperidine-1-carboxylate], the pIC50 in assay [1] (setting [3]) was 9.52; in assay [2] (setting [3]), 8.52.

As for `N#CCC1(n2cc(C(N)=O)c(Nc3ccnc(F)c3)n2)CCC(NCc2ccc(O)cc2)CC1` (stereo not drawn) [Example 41-26, Cis or trans 1-{1-(cyanomethyl)-4-[(4-hydroxybenzyl)amino]cyclohexyl}-3-[(2-fluoropyridin-4-yl)amino]-1H-pyrazole-4-carboxamide], the pIC50 was 7.80 in assay [1] (setting [3]) and 6.12 in assay [2] (setting [3]).

On to `Cc1noc(-c2ccc(Nc3nn(C4(CC#N)CCN(C(=O)OC(C)(C)C)CC4)cc3C(N)=O)cc2)n1` [Example 9-30, tert-butyl 4-(4-carbamoyl-3-{[4-(3-methyl-1,2,4-oxadiazol-5-yl)phenyl]amino}-1H-pyrazol-1-yl)-4-(cyanomethyl)piperidine-1-carboxylate], for which the results for the pIC50 in assay [1] (setting [3]) and in assay [2] (setting [3]) were 9.70 and 8.30, respectively.

Turning to `N#CCC1(n2cc(C(N)=O)c(Nc3ccccc3)n2)CCN(C(=O)OC2CCCCC2)CC1` [Example 30-31, cyclohexyl 4-[4-carbamoyl-3-(phenylamino)-1H-pyrazol-1-yl]-4-(cyanomethyl)piperidine-1-carboxylate], the negative logarithm of the IC50 (pIC50) in assay [1] (setting [3]) was 8.10; in assay [2] (setting [3]), 6.50.

Consider `CNC(=O)c1ccc(Nc2nn(C3(CC#N)CCN(C(=O)OC(C)(C)C)CC3)cc2C(N)=O)cc1` [Example 9-4, tert-Butyl 4-[4-(aminocarbonyl)-3-({4-[(methylamino)carbonyl]phenyl}amino)-1H-pyrazol-1-yl]-4-(cyanomethyl)piperidine-1-carboxylate], for which the figures for the pIC50 in assay [1] (setting [3]) and in assay [2] (setting [3]) were 10.00 and 8.70, respectively.

`N#CCC1(n2cc(C(N)=O)c(Nc3ccc(F)cc3)n2)CCN(Cc2cccnn2)CC1` [Example 22-47, 1-[4-(cyanomethyl)-1-(pyridazin-3-ylmethyl)piperidin-4-yl]-3-[(4-fluorophenyl)amino]-1H-pyrazole-4-carboxamide]: the pIC50 was 8.22 in assay [1] (setting [3]) and 7.00 in assay [2] (setting [3]).

Regarding `N#CCC1(n2cc(C(N)=O)c(Nc3ccc(Cl)cc3)n2)CCC(N2CC(F)C2)CC1` (stereo not drawn) [Example 39-1, Cis or trans 3-((4-chlorophenyl)amino)-1-(1-(cyanomethyl)-4-(3-fluoroazetidin-1-yl)cyclohexyl)-1H-pyrazole-4-carboxamide], the pIC50 in assay [1] (setting [3]) is 10.05; in assay [2] (setting [3]), 8.70.

For `N#CCCCN1CCC(CC#N)(n2cc(C(N)=O)c(Nc3ccccc3)n2)CC1` [Example 21-5, 1-[4-(cyanomethyl)-1-(3-cyanopropyl)piperidin-4-yl]-3-(phenylamino)-1H-pyrazole-4-carboxamide], the values for the pIC50 in assay [1] (setting [3]) and in assay [2] (setting [3]) were 7.34 and 6.50, respectively.

As to `N#CCC1(n2cc(C(N)=O)c(Nc3ccc(F)cc3)n2)CCN(Cc2ccc(F)cn2)CC1` [Example 22-48, 1-{4-(cyanomethyl)-1-[(5-fluoropyridin-2-yl)methyl]piperidin-4-yl}-3-[(4-fluorophenyl)amino]-1H-pyrazole-4-carboxamide], the pIC50 is 8.70 in assay [1] (setting [3]) and 7.14 in assay [2] (setting [3]).

On to `CC(C)(C)OC(=O)N1CC(CC#N)(n2cc(C(N)=O)c(Nc3ccc(S(C)(=O)=O)cc3)n2)C1` [Example 2-5, tert-butyl 3-(4-carbamoyl-3-{[4-(methylsulfonyl)phenyl]amino}-1H-pyrazol-1-yl)-3-(cyanomethyl)azetidine-1-carboxylate], for which the pIC50 in assay [1] (setting [3]) was 9.22; in assay [2] (setting [3]) it was 8.15.

As to `N#CCC1(n2cc(C(N)=O)c(Nc3ccnc(F)c3)n2)CCN(C(=O)CC2CCCO2)CC1` (stereo not drawn) [Example 34-39, 1-[4-(cyanomethyl)-1-(tetrahydrofuran-2-ylacetyl)piperidin-4-yl]-3-[(2-fluoropyridin-4-yl)amino]-1H-pyrazole-4-carboxamide], the figures for the pIC50 in assay [1] (setting [3]) and in assay [2] (setting [3]) were 9.05 and 7.38, respectively.

`N#CCC1(n2cc(C(N)=O)c(Nc3ccc(F)cc3)n2)CCN(c2ccc(C#N)cc2)CC1` [Example 3-26, 1-[4-(cyanomethyl)-1-(4-cyanophenyl)piperidin-4-yl]-3-[(4-fluorophenyl)amino]-1H-pyrazole-4-carboxamide]: the pIC50 was 9.70 in assay [1] (setting [3]) and 8.52 in assay [2] (setting [3]).

On to `CC(C)(C)OC(=O)N1CCC(C(C#N)C2CC2)(n2cc(C(N)=O)c(Nc3ccc(F)cc3)n2)CC1` (stereo not drawn) [Example 5-2, tert-butyl 4-{4-carbamoyl-3-[(4-fluorophenyl)amino]-1H-pyrazol-1-yl}-4-[cyano(cyclopropyl)methyl] piperidine-1-carboxylate], for which the figures for the pIC50 in assay [1] (setting [3]) and in assay [2] (setting [3]) were 6.57 and 6.13, respectively.

As for `CC(C)(C)OC(=O)N1CCC(CC#N)(n2cc(C(N)=O)c(Nc3cccc(-c4ccccc4F)c3)n2)CC1` [Example 15-10, tert-butyl 4-{4-carbamoyl-3-[(2′-fluorobiphenyl-3-yl)amino]-1H-pyrazol-1-yl}-4-(cyanomethyl)piperidine-1-carboxylate], the results for the pIC50 in assay [1] (setting [3]) and in assay [2] (setting [3]) were 7.51 and 6.08, respectively.

As for `N#CCC1(n2cc(C(N)=O)c(Nc3ccccc3)n2)CCN(S(=O)(=O)c2ccccc2Cl)CC1` [Example 37-12, 1-{1-[(2-chlorophenyl)sulfonyl]-4-(cyanomethyl)piperidin-4-yl}-3-(phenylamino)-1H-pyrazole-4-carboxamide], the pIC50 in assay [1] (setting [3]) was 8.52; in assay [2] (setting [3]) it was 8.05.
